Laboratory results from publication PMC5431558, “Expression proteomics study to determine metallodrug targets and optimal drug combinations” (Scientific Reports, 2017).

Molecular target: T1, MAT2A (S-adenosylmethionine synthase isoform type-2) (Homo sapiens, UniProt P31153)
T1 construct: Recombinant human MAT2A (Addgene plasmid #53648), expressed in E. coli BL21 (DE3) Rosetta
Assay: MAT2A enzymatic assay with pre-incubation, phosphate colorimetric readout
Type: biochemical

T1 sequence (P31153 whole entry, canonical isoform): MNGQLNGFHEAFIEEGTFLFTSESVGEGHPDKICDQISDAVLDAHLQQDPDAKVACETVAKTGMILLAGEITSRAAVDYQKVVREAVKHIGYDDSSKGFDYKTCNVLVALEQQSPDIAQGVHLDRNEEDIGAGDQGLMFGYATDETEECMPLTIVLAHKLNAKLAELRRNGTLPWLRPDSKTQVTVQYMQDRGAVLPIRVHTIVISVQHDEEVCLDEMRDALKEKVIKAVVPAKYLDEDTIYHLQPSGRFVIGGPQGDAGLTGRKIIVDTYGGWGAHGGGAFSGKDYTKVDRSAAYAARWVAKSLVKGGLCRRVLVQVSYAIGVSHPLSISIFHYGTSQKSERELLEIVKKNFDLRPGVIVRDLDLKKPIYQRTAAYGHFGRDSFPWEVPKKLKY

In the case of `C1N2CN3CN1CP(C2)C3.Cc1ccccc1.[Cl][Ru][Cl]` [RAPTA-T], the IC50 is reported as 107 ± 13 µM.
